Where two headings read alike, the source gives them in different places.
How the values were obtained:
Format in all cases: cell-based
AsPC-1 (K-Ras G12D) [1] = assay: Potency assay: pERK in AsPC-1 cells; settings: Homo sapiens
AsPC-1 (K-Ras G12D) [2] = assay: CellTiter-Glo cell viability assay, AsPC-1; settings: Homo sapiens, ASPC1, 120 h
Method in brief: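 Luminescence from CellTiter-Glo serves as the viability read-out after cells are treated with compound for 5 days. Each well's signal is divided by the DMSO average and multiplied by 100, and curves are fitted by four-parameter logistic regression.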

NCI-H358 (K-Ras G12C) = assay: CellTiter-Glo cell viability assay, H358; settings: Homo sapiens, NCI-H358, 120 h
Method: Determination of Cell Viability in RAS Mutant Cancer Cell Lines
Protocol: CellTiter-Glo® Cell Viability Assay
Note—The following protocol describes a procedure for monitoring cell viability of K-Ras mutant cancer cell lines in response to a compound of the invention. Other RAS isoforms may be employed, though the number of cells to be seeded will vary based on cell line used.
Test compounds (132.5 nL) were directly dispensed into the assay plates containing cells. […] On day 5, assay plates and their contents were equilibrated to room temperature for approximately 30 minutes. […] Luminescence was measured using the PerkinElmer Enspire. Data were normalized by the following: (Sample signal/Avg. DMSO)*100. The data were fit using a four-parameter logistic fit.

[3] = ASPC1, AsPC-1 cells, K-Ras G12D, read-out: pERK EC50 (AsPC-1 KRAS G12D)
[4] = AsPC-1, K-Ras G12D, 5-day treatment, read-out: AsPC-1 Cell Viability IC50
[5] = NCI-H358, K-Ras G12C, 5-day treatment, read-out: H358 Cell Viability IC50
[6] = ASPC1, read-out: pERK EC50 (AsPC-1 KRAS G12D)
[7] = read-out: AsPC-1 Cell Viability IC50, AsPC-1, K-Ras G12D, 5-day treatment
[8] = read-out: H358 Cell Viability IC50, NCI-H358, K-Ras G12C, 5-day treatment

Row | Structure (SMILES) | EC50 (AsPC-1 (K-Ras G12D) [1]; [3]) | IC50 (AsPC-1 (K-Ras G12D) [2]; [4]) | IC50 (NCI-H358 (K-Ras G12C); [5]) | EC50 (AsPC-1 (K-Ras G12D) [1]; [6]) | IC50 (AsPC-1 (K-Ras G12D) [2]; [7]) | IC50 (NCI-H358 (K-Ras G12C); [8])
1 | CCn1c(-c2cccnc2[C@H](C)OC)c2c3cc(ccc31)-c1cc(O)cc(c1)C[C@H](NC(=O)[C@H](C1CCCC1)N(C)C(=O)CN(C)C(=O)[C@H]1N[C@H]1C1(C#N)CC1)C(=O)N1CCC[C@H](N1)C(=O)OCC(C)(C)C2 [Compound 316] | < 5000 nM | 1000 to 10000 nM | 10 to 100 nM | – | – | –
2 | CCn1c(-c2cccnc2[C@H](C)OC)c2c3cc(ccc31)-c1cc(O)cc(c1)C[C@H](NC(=O)[C@H](C(C)C)N(C)C(=O)[C@@]1(C)CCCN1C(=O)[C@H]1CN1)C(=O)N1CCC[C@H](N1)C(=O)OCC(C)(C)C2 [Compound 239] | < 5000 nM | 100 to 1000 nM | 10 to 100 nM | – | – | –
3 | CCn1c(-c2cccnc2[C@H](C)OC)c2c3cc(ccc31)-c1cc(O)cc(c1)C[C@H](NC(=O)[C@H](C(C)C)N(C)C(=O)CN(C)C(=O)[C@H]1CN1CCCOC)C(=O)N1CCC[C@H](N1)C(=O)OCC(C)(C)C2 (stereo partly drawn) [Compound 201] | – | – | – | < 5000 nM | 100 to 1000 nM | < 10 nM
4 | CCn1c(-c2cccnc2[C@H](C)OC)c2c3cc(ccc31)-c1cc(O)cc(c1)C[C@H](NC(=O)[C@H](C(C)C)N(C)C(=O)CN(C)C(=O)[C@@H]1CN1CCCC#N)C(=O)N1CCC[C@H](N1)C(=O)OCC(C)(C)C2 (stereo partly drawn) [Compound 274] | – | – | – | < 5000 nM | 100 to 1000 nM | < 10 nM
5 | CCn1c(-c2cccnc2[C@H](C)OC)c2c3cc(ccc31)-c1csc(n1)C[C@H](NC(=O)[C@H](C(C)C)N(C)C(=O)N1CCN(C(=O)[C@@H]3CN3)C[C@H]1C)C(=O)N1CCC[C@H](N1)C(=O)OCC(C)(C)C2 [Compound 302] | < 5000 nM | 100 to 1000 nM | 10 to 100 nM | – | – | –
6 | CCn1c(-c2cccnc2[C@H](C)OC)c2c3cc(ccc31)-c1cc(O)cc(c1)C[C@H](NC(=O)[C@H](C(C)C)N(C)C(=O)CN(C)C(=O)[C@H]1CN1CCCC#N)C(=O)N1CCC[C@H](N1)C(=O)OCC(C)(C)C2 (stereo partly drawn) [Compound 273] | – | – | – | < 5000 nM | 100 to 1000 nM | < 10 nM
7 | CCn1c(-c2cccnc2[C@H](C)OC)c2c3cc(ccc31)-c1csc(n1)C[C@H](NC(=O)[C@H](C(C)C)N(C)C(=O)N(C)CC1CN(C(=O)[C@H]3CN3)C1)C(=O)N1CCC[C@H](N1)C(=O)OCC(C)(C)C2 [Compound 293] | < 5000 nM | 1000 to 10000 nM | 10 to 100 nM | – | – | –
8 | CCn1c(-c2cccnc2[C@H](C)OC)c2c3cc(ccc31)-c1cc(O)cc(c1)C[C@H](NC(=O)[C@H](C(C)C)N(C)C(=O)CN(C)C(=O)[C@H]1N[C@@H]1C(F)(F)F)C(=O)N1CCC[C@H](N1)C(=O)OCC(C)(C)C2 [Compound 261] | – | – | – | < 5000 nM | 100 to 1000 nM | < 10 nM
9 | CCn1c(-c2cccnc2[C@H](C)OC)c2c3cc(ccc31)-c1cc(O)cc(c1)C[C@H](NC(=O)[C@H](C(C)C)N(C)C(=O)CN(C)C(=O)[C@H]1CN1C(C)C)C(=O)N1CCC[C@H](N1)C(=O)OCC(C)(C)C2 (stereo partly drawn) [Compound 142] | – | – | – | < 5000 nM | 100 to 1000 nM | < 10 nM
10 | CCn1c(-c2cccnc2[C@H](C)OC)c2c3cc(ccc31)-c1cc(O)cc(c1)C[C@H](NC(=O)[C@H](C(C)C)N(C)C(=O)[C@@]1(F)CCN(C(=O)[C@H]3CN3)C1)C(=O)N1CCC[C@H](N1)C(=O)OCC(C)(C)C2 [Compound 171] | < 5000 nM | 100 to 1000 nM | < 10 nM | – | – | –
11 | CCn1c(-c2cccnc2[C@H](C)OC)c2c3cc(ccc31)-c1cc(O)cc(c1)C[C@H](NC(=O)[C@H](C(C)C)N(C)C(=O)CN(C)C(=O)[C@@H]1N[C@@H]1C1CC1)C(=O)N1CCC[C@H](N1)C(=O)OCC(C)(C)C2 [Example 133, (2R,3R)-3-cyclopropyl-N-(2-(((2S)-1-(((6^3S,4S)-1^1-ethyl-2^5-hydroxy-1^2-(2-((S)-1-methoxyethyl)pyridin-3-yl)-10,10-dimethyl-5,7-dioxo-6^1,6^2,6^3,6^4,6^5,6^6-hexahydro-1^1H-8-oxa-1(5,3)-indola-6(1,3)-pyridazina-2(1,3)-benzenacycloundecaphane-4-yl)amino)-3-methyl-1-oxobutan-2-yl)(methyl)amino)-2-oxoethyl)-N-methylaziridine-2-carboxamide] | – | – | – | < 5000 nM | 10 to 100 nM | 10 to 100 nM
12 | CCn1c(-c2cccnc2[C@H](C)OC)c2c3cc(ccc31)-c1cc(O)cc(c1)C[C@H](NC(=O)[C@H](C1CCCC1)N1CC[C@]3(CCN(C(=O)[C@@H]4N[C@@H]4C4CC4)C3)C1=O)C(=O)N1CCC[C@H](N1)C(=O)OCC(C)(C)C2 [Example 214, (2S)-2-cyclopentyl-2-((S)-7-((2R,3R)-3-cyclopropylaziridine-2-carbonyl)-1-oxo-2,7-diazaspiro[4.4]nonan-2-yl)-N-((6^3S,4S)-1^1-ethyl-2^5-hydroxy-1^2-(2-((S)-1-methoxyethyl)pyridin-3-yl)-10,10-dimethyl-5,7-dioxo-6^1,6^2,6^3,6^4,6^5,6^6-hexahydro-1^1H-8-oxa-1(5,3)-indola-6(1,3)-pyridazina-2(1,3)-benzenacycloundecaphane-4-yl)acetamide] | < 5000 nM | 10 to 100 nM | 10 to 100 nM | – | – | –

Source: patent publication US11739074B2, “Ras inhibitors” (Revolution Medicines, Inc., priority 2019, dated 2023)
